Test results as given in ChEMBL document CHEMBL1128779, “Synthesis of a fluorescent labeled thromboxane A2 receptor antagonist” (Bioorg Med Chem Lett, 1995).
pKd: −log10 of the molar value.

Molecular target: T1, Thromboxane A2 receptor (Homo sapiens, UniProt P21731)
T1 sequence (P21731 whole entry): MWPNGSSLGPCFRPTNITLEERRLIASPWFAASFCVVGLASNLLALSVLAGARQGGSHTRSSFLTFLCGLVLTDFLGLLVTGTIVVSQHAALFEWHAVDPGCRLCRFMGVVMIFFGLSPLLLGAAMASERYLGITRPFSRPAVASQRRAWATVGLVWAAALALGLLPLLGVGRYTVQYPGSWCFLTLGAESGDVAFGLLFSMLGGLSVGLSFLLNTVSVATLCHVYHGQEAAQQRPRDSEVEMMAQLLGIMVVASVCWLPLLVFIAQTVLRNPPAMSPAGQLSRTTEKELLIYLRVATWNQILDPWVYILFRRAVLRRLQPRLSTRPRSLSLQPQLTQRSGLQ
Test: Binding affinity of Thromboxane A2 (TXA2) receptor using [3H]-SQ 29,548 radioligand in washed human platelets

Compound: CC1(C)C2CC[C@@H](Cc3cccc4ccc(=O)oc34)C1C2 (some centres not stated)
- pKd: 6.37

Compound: CC1(C)C2CC[C@H](Cc3cccc4ccc(=O)oc34)C1C2 (some centres not stated)
- pKd: 6.86
